In brackets after ≈: the same amount, converted by molar mass.

Here are results for 4 compounds from ChEMBL document CHEMBL3045631, “Anticandidiasis agents from a Tanzanian plant, Combretum zeyheri” (2013).

Format in all cases: functional
Assay [1] relates to Candida albicans. Briefly: Antifungal activity against Candida albicans ATCC 90028 by two-fold serial microdilution method.
Assay [2] concerns Candida albicans. Nature of the assay: Antifungal activity against Candida albicans MTCC 1637 by two-fold serial microdilution method.
In assay [3] the test system is Candida albicans. Briefly: Antifungal activity against Candida albicans clinical isolate by two-fold serial microdilution method.

In the case of `C[C@@H]1[C@H](O)[C@@H](C)/C=C/C=C/C=C/C=C/C=C/C=C/C=C/[C@H](O[C@@H]2O[C@H](C)[C@@H](O)[C@H](N)[C@@H]2O)C[C@@H]2O[C@](O)(C[C@@H](O)C[C@@H](O)[C@H](O)CC[C@@H](O)C[C@@H](O)CC(=O)O[C@H]1C)C[C@H](O)[C@H]2C(=O)O` [AMPHOTERICIN B], the MIC in assay [1] was found to be 3.13 µg/mL (≈ 3.39 µM); in assay [2] it was 3.13 µg/mL (≈ 3.39 µM); in assay [3], 6.25 µg/mL (≈ 6.76 µM).
`Clc1ccccc1C(c1ccccc1)(c1ccccc1)n1ccnc1` [CLOTRIMAZOLE]: the MIC was 0.78 µg/mL (≈ 2.26 µM) in assay [1], 0.39 µg/mL (≈ 1.13 µM) in assay [2] and 0.39 µg/mL (≈ 1.13 µM) in assay [3].
For the compound `CC1(C)CC[C@]2(C(=O)O)CC[C@]3(C)C(=CC[C@@H]4[C@@]5(C)C[C@@H](O)[C@H](O)C(C)(C)[C@@H]5[C@H](O)C[C@]43C)[C@@H]2C1` [6-beta-hydroxymaslinic acid], the MIC in assay [1], in assay [2] and in assay [3] was > 250 µg/mL throughout.
Consider `CC1(C)CC[C@]2(C(=O)O)CC[C@]3(C)C(=CC[C@@H]4[C@@]5(C)C[C@@H](O)[C@H](O)[C@@](C)(CO)[C@@H]5[C@H](O)C[C@]43C)[C@@H]2C1` [TERMINOLIC ACID], for which the MIC in assay [1] amounted to 62.5 µg/mL (≈ 124 µM); in assay [2] it was 125 µg/mL (≈ 248 µM); in assay [3], 125 µg/mL (≈ 248 µM).
